Test results reported in ChEMBL document CHEMBL3102747, “Discovery of novel N-(5-(arylcarbonyl)thiazol-2-yl)amides and N-(5-(arylcarbonyl)thiophen-2-yl)amides as potent RORγt inhibitors” (Bioorg Med Chem, 2014).

What was measured:
[1] = target: T1, Nuclear receptor ROR-gamma (Homo sapiens, UniProt P51449); experiment: Inhibition of APC-labeled RORgammat receptor ligand binding domain (unknown origin) after 1 hr by FRET assay
T1 sequence (P51449 whole entry): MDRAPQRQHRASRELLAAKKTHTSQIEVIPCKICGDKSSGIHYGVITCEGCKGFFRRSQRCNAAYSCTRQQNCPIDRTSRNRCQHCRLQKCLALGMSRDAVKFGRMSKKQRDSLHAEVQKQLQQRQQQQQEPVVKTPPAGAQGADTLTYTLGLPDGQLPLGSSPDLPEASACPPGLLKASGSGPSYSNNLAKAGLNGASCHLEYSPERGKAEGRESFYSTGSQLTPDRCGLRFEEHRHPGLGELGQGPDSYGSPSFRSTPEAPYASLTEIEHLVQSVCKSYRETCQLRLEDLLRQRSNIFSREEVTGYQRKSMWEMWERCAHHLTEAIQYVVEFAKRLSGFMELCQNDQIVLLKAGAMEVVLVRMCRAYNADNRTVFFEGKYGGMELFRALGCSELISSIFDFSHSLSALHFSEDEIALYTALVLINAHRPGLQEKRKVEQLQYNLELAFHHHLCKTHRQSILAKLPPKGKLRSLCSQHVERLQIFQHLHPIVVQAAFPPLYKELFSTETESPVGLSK

[2] = target: T2, Nuclear receptor ROR-gamma (Mus musculus, UniProt P51450); experiment: Inhibition of RORgammat receptor ligand binding domain in mouse spleen CD4+ T cells assessed as inhibition of IL-17 production after 3 days by ELISA; type: cell-based, T-cell
T2 sequence (P51450 whole entry): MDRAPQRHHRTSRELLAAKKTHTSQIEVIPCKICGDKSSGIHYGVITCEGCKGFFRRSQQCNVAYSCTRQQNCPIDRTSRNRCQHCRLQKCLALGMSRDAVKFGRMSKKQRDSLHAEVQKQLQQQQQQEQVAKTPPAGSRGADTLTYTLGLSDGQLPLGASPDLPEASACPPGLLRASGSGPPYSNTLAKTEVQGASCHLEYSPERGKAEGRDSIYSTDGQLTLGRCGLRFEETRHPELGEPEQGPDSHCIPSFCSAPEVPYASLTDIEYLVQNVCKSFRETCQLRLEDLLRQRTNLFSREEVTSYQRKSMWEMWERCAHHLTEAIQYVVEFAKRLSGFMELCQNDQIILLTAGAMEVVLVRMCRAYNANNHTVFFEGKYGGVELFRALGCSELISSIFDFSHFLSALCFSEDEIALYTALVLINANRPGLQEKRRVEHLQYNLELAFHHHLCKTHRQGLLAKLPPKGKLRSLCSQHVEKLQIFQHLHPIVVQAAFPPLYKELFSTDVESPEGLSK

[3] = target: T3, Nuclear receptor ROR-gamma (Homo sapiens) (UniProt P51449)
T3 sequence (whole entry): T1 sequence (P51449 whole entry)
Description: Binding affinity to RORgammat receptor ligand binding domain (unknown origin) assessed as change in melting temperature at 50 uM by circular dichroism spectrophotometric analysis

Mus musculus [4] = experiment: Dose normalized AUC (0 to infinity) in C57BL/6 mouse at 2 mg/kg, po; type: ADME, organism-based; parameters: dose 2 mg/kg, route oral; details: in vivo
[5] = Volume of distribution at steady state in C57BL/6 mouse at 1 mg/kg, iv; type: ADME, organism-based; parameters: dose 1 mg/kg, route intravenous; details: in vivo, read-out: Vdss
[6] = Oral biavailability in C57BL/6 mouse at 2 mg/kg; type: ADME, organism-based; parameters: dose 2 mg/kg; details: in vivo
Mus musculus [7] = experiment: Dose normalized AUC (0 to infinity) in C57BL/6 mouse at 1 mg/kg, iv; type: ADME, organism-based; parameters: dose 1 mg/kg, route intravenous; details: in vivo
[8] = Cmax in C57BL/6 mouse at 2 mg/kg, po; type: ADME, organism-based; parameters: dose 2 mg/kg, route oral; details: in vivo
[9] = target: T1, Nuclear receptor ROR-gamma; experiment: Displacement of 25-[26,27-3H]hydroxycholesterol from RORgammat receptor ligand binding domain (unknown origin) after 60 mins
[10] = Clearance in C57BL/6 mouse at 1 mg/kg, iv; type: ADME, organism-based; parameters: dose 1 mg/kg, route intravenous; details: in vivo
[11] = Half life in C57BL/6 mouse at 1 mg/kg, iv; type: ADME, organism-based; parameters: dose 1 mg/kg, route intravenous; details: in vivo

Compound	IC50 [1] [nM]	IC50 [2] [nM]	also measured
CCS(=O)(=O)c1ccc(CC(=O)Nc2nc(C3CCCCC3)cs2)cc1	1580	–	–
CCS(=O)(=O)c1ccc(CC(=O)Nc2cc(-c3ccccc3)c(C(=O)c3ccccc3)s2)cc1	10	50.1	–
CCS(=O)(=O)c1ccc(CC(=O)Nc2cc(-c3cccc(Cl)c3)c(C(=O)c3cccc(F)c3)s2)cc1	12.6	15.8	ΔTm [3]: 14.8 °C; AUC/dose (Mus musculus [4]): 34 ng·h/mL/mg/kg; Vd [5]: 1.1 L/kg; bioavailability [6]: 4.5%; AUC/dose (Mus musculus [7]): 764 ng·h/mL/mg/kg; Cmax [8]: 25.8 ng/mL; Ki [9]: 31.6 nM; clearance [10]: 24 mL/min/kg; half-life [11]: 39 min
CCS(=O)(=O)c1ccc(CC(=O)Nc2cc(-c3cccc(Cl)c3)c(C(=O)c3ccccc3F)s2)cc1	6.31	10	–
CCS(=O)(=O)c1ccc(CC(=O)Nc2cc(-c3cccc(Cl)c3)c(C(=O)c3cccc(Cl)c3)s2)cc1	7.94	25.1	–
CCS(=O)(=O)c1ccc(CC(=O)Nc2nc(-c3cccc(CN(C)C)c3)c(C(=O)c3ccccc3)s2)cc1	794	> 7940	–
CN(C)S(=O)(=O)c1ccc(CC(=O)Nc2nc(-c3cc(Cl)ccc3Cl)cs2)cc1	12600	–	–
CCS(=O)(=O)c1ccc(CC(=O)Nc2cc(-c3cccc(C(F)(F)F)c3)c(C(=O)c3cccc(F)c3)s2)cc1	10	12.6	–
O=C(Cc1ccc(Cl)cc1)Nc1nc(-c2cc(Cl)ccc2Cl)cs1	7940	–	–
CCS(=O)(=O)c1ccc(CC(=O)Nc2nc(-c3cccc(Cl)c3)c(C(=O)c3cccc(F)c3)s2)cc1	25.1	200	–
N#Cc1ccc(CC(=O)Nc2nc(-c3cc(Cl)ccc3Cl)cs2)cc1	5010	–	–
CCS(=O)(=O)c1ccc(CC(=O)Nc2nc(-c3cccc(Cl)c3)c(C(=O)c3ccccc3F)s2)cc1	20	316	–
CCS(=O)(=O)c1ccc(CC(=O)Nc2nc(-c3c(Cl)cccc3Cl)cs2)cc1	6310	–	–
CCS(=O)(=O)c1ccc(CC(=O)Nc2nc(-c3ccccc3)c(C(C)=O)s2)cc1	6310	–	–
CCc1sc(NC(=O)Cc2ccc(S(=O)(=O)CC)cc2)nc1-c1ccccc1	5010	–	–
CCS(=O)(=O)c1ccc(CC(=O)Nc2nc(-c3cccc(Cl)c3Cl)cs2)cc1	794	–	–
O=C(CC1CCCCC1)Nc1nc(-c2cc(Cl)ccc2Cl)cs1	> 25100	–	–
CC(C)CC(=O)Nc1nc(-c2cc(Cl)ccc2Cl)cs1	> 25100	–	–
CCS(=O)(=O)c1ccc(CC(=O)Nc2nc(-c3ccccc3)c(Cc3ccccc3)s2)cc1	631	–	–
CCC(=O)Nc1nc(-c2cc(Cl)ccc2Cl)cs1	> 25100	–	–
CCCS(=O)(=O)c1ccc(CC(=O)Nc2nc(-c3cc(Cl)ccc3Cl)cs2)cc1	1580	–	–
CNS(=O)(=O)c1ccc(CC(=O)Nc2nc(-c3cc(Cl)ccc3Cl)cs2)cc1	1260	–	–
CCC(=O)c1sc(NC(=O)Cc2ccc(S(=O)(=O)CC)cc2)nc1-c1ccccc1	2510	–	–
CCS(=O)(=O)c1ccc(CC(=O)Nc2nc(-c3ccccc3)cs2)cc1	7940	–	–
CCS(=O)(=O)c1ccc(CC(=O)Nc2nc(-c3cccc(Cl)c3)c(C(=O)c3ccccc3)s2)cc1	12.6	126	–
CCS(=O)(=O)c1ccc(CC(=O)Nc2nc(-c3ccc(Cl)cc3Cl)cs2)cc1	1260	–	–
